According to US20260183311A1, “COMPOUNDS DERIVED FROM STEROLS FOR THE TREATMENT OF A DISEASE ASSOCIATED WITH A MITOCHONDRIAL DEFICIT” (DENDROGENIX, priority 2022, published 2026):
Entries after “also recorded” stand apart in the source; their conditions may differ.

Legend:
Neuro-2a cells [1] = test: Test of metabolic activity (MTT) on Neuro-2a cells after ethanol (EtOH) intoxication; format: cell-based, mouse; conditions: for metabolic activity after EtOH intoxication relative to untreated cells (MTT): 24 h treatment with 100 nM, EtOH 200 mM and 500 mM, FIG. 2B
Protocol: (§1) A test based on the metabolic activity of the neurons was performed to evaluate the effect of the compounds of formula (I) on this metabolic activity. This test is based on the use of the tetrazolium salt MTT (3-(4,5-dimethylthiazol-2-yl)-2,5-diphenyltetrazolium bromide). Tetrazolium is reduced by mitochondrial succinate dehydrogenase in active live cells to formazan, a purple-colored precipitate. The amount of precipitate formed is proportional to the metabolic activity present in the culture. Thus, spectroscopic assay of the optical density at 550 nm makes it possible to determine the relative amount of metabolic activity and consequently the mitochondrial activity. This test on cortical neuron cultures was performed with different compounds in reference to Table 2 (DX101, DX243, DX244, DX245, DX249, DX301, DX302 and DX401) used at the same concentration (100 nM).
The same test described in Example 1 was performed on Neuro-2a cells—a mouse neuroblastoma cell line. It was shown that 24 h of intoxication with ethanol (EtOH) at high concentration (500 mM) in this cell line reduced the metabolic activity of these cells (χ=P value <0.0001 relative to the control).

Neuro-2a cells [2] = test: Test of relative metabolic activity (MTT) on Neuro-2a cells under normal conditions; format: cell-based, mouse; conditions: physiological conditions; 24 h; two concentrations; FIG. 2A
Protocol: as §1
The same test described in Example 1 was performed on Neuro-2a cells—a mouse neuroblastoma cell line. Under physiological conditions, once cultured and at about 50% confluence, Neuro-2a cells were placed in contact for 24 h with two concentrations of the compounds DX243 and DX245.

dopaminergic neurons [3] = test: Mitochondrial dynamics (mitochondrial mass) in dopaminergic neurons treated with MPP+; format: cell-based, rat; conditions: MPP+ 48 h; different concentrations during MPP+ and 48 h after removal; FIG. 5
Protocol: (§2) The mitochondrial effects of compound DX243 were tested in a model of dopaminergic neurons treated with MPP+ (1-methyl-4-phenylpyridinium), a mitochondrial toxin that increases mitochondrial stress and reduces the number of mitochondria. MPP+ is known for its deleterious effects on mitochondria (increased mitochondrial stress measured by the amount of cytochrome C, reduced mitochondrial number measured by means of the Mitotracker test). Dopaminergic neurons were obtained from microdissection of the midbrain of rat embryos cultured with Neurobasal™ Medium (Ref. 21103049 ThermoFisher Scientific) supplemented with B27 supplement 50× (Ref. 17504044 ThermoFisher Scientific), penicillin/streptomycin, L-glutamine and also BDNF (brain-derived neurotrophic factor) and GDNF (glial cell-derived neurotrophic factor).
(§3) These neurons were cultured for 5 days and then treated for 48 h with MPP+. These neurons were also exposed to different concentrations of the compound DX243 during the 48 h of MPP+ treatment, and also 48 h after MPP+ removal.

Neuro-2a cells [4] = test: MitoTracker study of mitochondria in Neuro-2a cells after ethanol intoxication; format: cell-based, mouse; conditions: after 24 h of ethanol intoxication (500 mm); FIG. 2C
dopaminergic neurons [5] = test: Mitochondrial stress in dopaminergic neurons treated with MPP+; format: cell-based, rat; conditions: 10 nM; FIG. 6
Protocol: as §2, §3

C2C12 = test: Test of mitochondrial dynamics (Mitotracker labeling) on C2C12 cell line; format: cell-based; conditions: 24 h, different concentrations, FIG. 3
Protocol: (§4) A human neuroblastoma cell line (SHSY5y) and also a myoblast cell line (C2C12) were cultured in DMEM™ medium (Ref. 21068028 ThermoFisher Scientific). Once in culture, these two cell lines were treated for 24 h with different concentrations of the compound DX243. A series of images was taken, labeling with Mitotracker™ (Ref. M7512, ThermoFisher Scientific), which highlights and visualizes the mitochondria present in these cells, and enables quantification of their amount.

SHSY5y = test: Test of mitochondrial dynamics (Mitotracker labeling) on SHSY5Y cell line; format: cell-based, human; conditions: 24 h, different concentrations, FIG. 3
Protocol: as §4

hippocampal neurons = test: Mitochondrial stress in hippocampal neurons treated with peptide Aβ 1-42; format: cell-based; conditions: 1 nM, FIG. 7
Protocol: The mitochondrial effects of compound DX243 were tested in a model of hippocampal neurons treated with peptide Aβ 1-42, this peptide inducing mitochondrial stress (represented by a reduction in mitochondrial surface area).

[6] = test system: mitochondrial fission gene drp1; test: Inhibition of mitochondrial fission on cochlear explants (qRT-PCR); format: cell-based, mice; conditions: 100 nM; 24 h; relative to untreated cochleae; FIG. 4
Protocol: A cochlear explant model was developed. To obtain cochleae, the organ of hearing, in culture, cochleae from 3-day-old mice were microdissected. These cochleae were then placed in DMEM medium with addition of glucose (0.5%), N1 (0.5%), insulin (0.25%) and penicillin (0.1%), for 24 h. 100 nM of the compound DX243 were then added to this culture medium for 24 h. The cochleae were then recovered and the RNA extracted therefrom, so as to be able to analyze the modulation of several genes following treatment with the compound DX243.

SMILES | metabolic activity after EtOH intoxication relative to untreated cells (MTT) (Neuro-2a cells [1]) | metabolic activity of Neuro-2a cells (MTT) (Neuro-2a cells [2]) | metabolic activity after EtOH intoxication (MTT) (Neuro-2a cells [1]; 24 h EtOH 500 mM, 24 h treatment with 1 nM) | mitochondrial mass (dopaminergic neurons [3]) | mitochondrial surface area (MitoTracker) (Neuro-2a cells [4]) | mitochondrial stress engendered by MPP+ treatment (dopaminergic neurons [5]) | mitochondrial amount (mass), Mitotracker labeling (C2C12) | mitochondrial amount (mass), Mitotracker labeling (SHSY5y) | mitochondrial surface area (hippocampal neurons) | expression of drp1 mRNA (qRT-PCR) [6]
CC(C)CCCC(C)[C@H]1CCC2C3C[C@@H](NCCCCNCCCN)[C@@]4(O)C[C@@H](O)CC[C@]4(C)C3CC[C@@]21C (stereo partly drawn) [DX245] | significantly greater metabolic activity | increase in the metabolic activity | – | – | – | – | – | – | – | –
CC(C)CCC[C@@H](C)[C@H]1CC[C@H]2[C@@H]3C[C@@H](NCCCNCCCCN)[C@@]4(O)C[C@@H](O)CC[C@]4(C)[C@H]3CC[C@]12C [DX243, 5α-hydroxy-6β-[3-(4-aminobutylamino)propylamino]cholestan-3β-ol] | significantly greater metabolic activity | increase in the metabolic activity | partially recovered | increasing and restoring mitochondrial mass | increase in mitochondrial surface area | reduction in mitochondrial stress | increase in mitochondrial amount (mass) | increase in mitochondrial amount (mass) | restoring this decrease in mitochondrial surface area | reduction in drp1 mRNA; also recorded: inhibition of expression
